Experiment [1] has as its system gastric emptying of rats. Briefly: Activity to gastric emptying of TRPA1 agonist (phenol red, rats). To be noted: Rattus norvegicus; male wistar rats, oral administration, versus control animals; read-out: ED50 (amount which suppresses 50% of gastric emptying). The experiment is classed as in vivo. An excerpt: When EC cell is stimulated by content of a gastrointestinal tract, 5-HT is secreted. The secreted 5-HT promotes the secretion or motility through a 5-HT receptor present in intestinal nerve plexus or gastrointestinal smooth muscle. The secreted 5-HT is instantly taken into a cell by its specific transporter, and is metabolized by […]. Thus, while it is considerably difficult to directly measure the secreted 5-HT concentration, it has been known that gastric emptying is delayed as a physiological activity through 5-HT in rodents. In order to verify in vivo activity through 5-HT of the compound to be tested, activity to gastric emptying of rats by various TRPA1 agonists was studied.
In the experiment, male wistar rats (body weight 290 to 360 g) were used. The animals were purchased from Japan SLC (Shizuoka). The animals were allowed to drink water freely under a constitutive environment.
5 minutes after the medicine was orally administered, 0.05% phenol red solution (1.5 mL) was orally administered. After 15 minutes, rats were put painlessly to death by cervical vertebral dislocation, their stomachs were exenterated, and phenol red was eluted with 0.1M aqueous NaOH solution (5 mL) from the exenterated stomachs. 20% aqueous trichloroacetic acid solution (0.1 mL) was added to the NaOH solution (0.5 mL), followed by stirring and centrifugation at 15,000 rpm, at 4° C., for 10 minutes. 0.5M aqueous NaOH solution (0.2 mL) was added to the supernatant (0.05 mL), followed by stirring, and absorbance at 560 nm was measured using an absorption spectrometer (spectrometer spectramax M2; Molecular Devices, CA, USA).
A gastric emptying was calculated by the following calculating formula.
Gastric emptying (%)=100−(A/B)×100
A: amount of phenol red remaining in stomach
B: amount of phenol red remaining in stomach just after administering phenol red
ED50 values (amount of the compound to be tested which suppresses 50% of gastric emptying, with respect to the control animals without administering the compound to be tested) of some of the compounds of the formula (I) are shown in Table 2. In this connection, comparative compound 1 and comparative compound 2 are (3E)-1-methyl-3-(2-oxopropyridene)-1,3-dihydro-2H-indol-2-one, and (3E)-3-(2-oxopropyridene)-1-prop-2-in-1-yl-1,3-dihydro-2H-indol-2-one described in Non Patent Document 4 above, and has the following chemical structures, respectively.

In experiment [2] the target is Cytochrome P450(2D6) (Homo sapiens, UniProt P10635). Briefly: Cytochrome P450(2D6) enzyme inhibition test. The settings on record: CYP2D6, fluorescent substrate 1.5 μmol/L, 37° C., 20 minutes. Type of experiment: in vitro ADME. The procedure, abridged: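 CYP2D6 (2.5×10^-8 M) incubated 20 min at 37 °C with 1.5 μmol/L AMMC substrate and compound (3.1×10^-7 to 2×10^-5 M) in pH 7.4 phosphate buffer with NADPH-regenerating system. Stopped with Tris/acetonitrile, fluorescence read at ex 390/em 460 nm, and IC50 taken at 50% inhibition.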
Chain of Cytochrome P450(2D6) (P10635 whole entry): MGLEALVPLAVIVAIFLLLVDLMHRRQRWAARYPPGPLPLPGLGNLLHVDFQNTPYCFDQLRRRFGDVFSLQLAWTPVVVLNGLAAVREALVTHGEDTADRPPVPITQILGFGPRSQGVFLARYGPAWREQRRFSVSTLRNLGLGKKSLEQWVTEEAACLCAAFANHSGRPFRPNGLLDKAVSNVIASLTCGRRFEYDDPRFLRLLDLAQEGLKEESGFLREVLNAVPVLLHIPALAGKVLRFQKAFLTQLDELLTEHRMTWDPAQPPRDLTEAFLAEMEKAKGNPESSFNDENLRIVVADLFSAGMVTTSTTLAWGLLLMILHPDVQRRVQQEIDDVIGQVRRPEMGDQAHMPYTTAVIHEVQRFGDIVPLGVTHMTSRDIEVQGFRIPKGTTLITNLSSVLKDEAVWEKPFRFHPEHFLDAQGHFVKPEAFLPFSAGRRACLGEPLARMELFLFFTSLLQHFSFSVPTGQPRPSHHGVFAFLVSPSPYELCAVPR

By ED50 is commonly meant the dose that gives a 50% effect, or the effect in half of the subjects. Usually IC50 stands for the concentration that gives 50% inhibition. Low values mean greater potency in that assay, high ones weaker potency in that assay. For `O=C(O)/C=C1/C(=O)N(CC2CCCC2)c2c(F)cccc21` [Example 28, (2E)-[1-(cyclopentylmethyl)-7-fluoro-2-oxo-1,2-dihydro-3H-indol-3-ylidene]acetic acid], in experiment [1], the 50% effective dose (ED50) stood at 0.44 mg/kg. Moreover, the IC50 in experiment [2] was greater than 25 µM.
